Assay results from US6943148B1, “Methods for delivering therapeutics across blood-barrier and for altering receptor binding affinity” (Nobex Corporation, priority 1998, dated 2005).
Where a SMILES comes first, the peptide text is derived from it. Where no end group is shown, it is not given here. The star is where a group is joined. X1 = CCCCCCCCCCCCCCCCOCCOCCOC(=O)*

Experiments:
[1] = tested on: Sprague-Dawley rats; assay: Rat paw-hot plate test; format: in vivo; conditions: for Mean Analgesia as Compared with Morphine at 3 mg/Kg @ 5 min / Mean Analgesia as Compared with Morphine at 3 mg/Kg @ 30 min: hot plate 52° C., dose (mg/kg): Morphine 3, Enkephalin 20, Cetyl 5, DHA 20, Cholesterol 5, Linolenic 10; for analgesic effect as compared to morphine as a baseline: hot plate, time not stated, enkephalin 20 mg/kg
Method: Adult, male Sprague-Dawley rats weighing 150-175 g were obtained from Charles River Breeding Laboratories (Raleigh, NC) and used for all animal studies. Rats were housed in hanging wire-bottomed cages in a vivarium equipped with a 12:12 light:dark cycle and humidity was maintained between 45-65% with a room temperature of […]. Rats were provided Purina Rodent Chow and tap water ad libitum.
Met-enkephalin-lys SEQ ID NO: 49 and met-enkephalin-lys SEQ ID NO: 1 derivatives were assessed for analgesic activity by rat paw-hot plate assay. Rats were given an injection of naloxone at 0.5 mg/kg (s.c.) then administered a single administration of cetyl-enkephalin SEQ ID NO: 1 by the tail vein 10 minutes later at a dose of 5.0 mg/kg.
In a separate study, rats were administered cetyl-enkephalin SEQ ID NO: 1 (5.0 mg/kg, i.v.) or clonidine (0.125 mg/kg, i.v.).
The latency to rat paw withdrawal from the hot plate was measured by a Hot Plate Analgesia Meter (Harvard Apparatus Ltd., Kent, England). The temperature of the hot plate was set and calibrated at 52° C. and rats were removed from the heat stimulus by 36 seconds after placement. Latency trials were terminated when the animal was either licking a hind paw or initiating a jump from the plate. Baseline measurements were collected 1 hour prior to drug administration and at various times post-injection, dependent upon the study conducted. All hot plate testing was terminated by 1 hour after drug dosing.

[2] = target: T1, μ-receptor (Rattus norvegicus, UniProt P33535); assay: % SPECIFIC BINDING; conditions: 0.1 µM
T1 construct: assessed for analgesic activity by rat paw-hot plate assay; from tissue; host or cells: whole living rat (in vivo)
From the text: Table printed on a drawing sheet, FIG.8
Head of the field: % […] BINDING
First copying reader's note: The title is printed as the top row inside the table frame and is given as the title, not as a grid row.

[3] = Extraction and detection of enkephalin conjugates from the brain of dosed rats (HPLC); format: in vivo; conditions: rat brain removed 10 minutes after dosing; 5 mg/kg cetyl-PEG2-enkephalin; compared with standard peak
Method: The following procedure was used to identify the presence of conjugate from the brain specimen of animals dosed with 5 mg/kg cetyl-PEG2-enkephalin SEQ ID NO: 1.
After 10 minutes of dosing, the brain of the animal was perfused with 1.5% triflouroacetic acid in PBS solution, and the brain was removed and frosen at −70° C. The brain was homogenized with 1 mL of 1.5% triflouroacetic acid in PBS solution and the homogenate was extracted with acetonitrile/isopropanol solution. The extract was treated with saturated sodium chloride solution and frozen at −20° C. for 2 hours. The organic layer was isolated and centrifuged at 4000 RPM. The supernatant was evaporated and the resulting residue was reconstituted in acetonitrile/isopropanol/water mixture. The reconstituted solution was analyzed by HPLC using a gradient of 10 to 100% isopropanol/water (0.1% trifloiroacetic acid) on a C-18 column. The presence and the concentration of cetyl-PEG2-enkephalin SEQ ID NO: 1 conjugate in the extract were measured by comparing the retention time and the peak area of standard solution under the same analytical condition.

T1 sequence (P33535 whole entry, looked up): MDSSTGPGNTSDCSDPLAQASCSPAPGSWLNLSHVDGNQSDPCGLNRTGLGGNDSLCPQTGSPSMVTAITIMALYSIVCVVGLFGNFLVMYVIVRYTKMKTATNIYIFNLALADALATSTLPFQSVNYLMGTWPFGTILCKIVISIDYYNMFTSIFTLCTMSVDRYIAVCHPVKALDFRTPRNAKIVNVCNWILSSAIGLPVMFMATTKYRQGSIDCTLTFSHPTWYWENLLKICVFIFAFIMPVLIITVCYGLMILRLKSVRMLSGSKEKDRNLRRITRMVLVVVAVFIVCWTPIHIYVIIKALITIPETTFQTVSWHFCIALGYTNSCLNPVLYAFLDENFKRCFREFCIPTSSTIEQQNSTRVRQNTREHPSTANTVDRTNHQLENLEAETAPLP

CN1CC[C@]23c4c5ccc(O)c4O[C@H]2[C@@H](O)C=C[C@H]3[C@H]1C5 [Morphine, reference compound]
Mean Analgesia as Compared with Morphine at 3 mg/Kg @ 5 min [1]: 100%
Mean Analgesia as Compared with Morphine at 3 mg/Kg @ 30 min [1]: 100%

PALMITATE-PEG3-ENK (SEQ ID NO: 1) [PALM-ENK]
% SPECIFIC BINDING [2]: 76%

DHA-PEG2-ENK (SEQ ID NO: 1) (YGGFMK; also: DHA-PEG2 conjugate, site not given here) [DHA-ENK]
% SPECIFIC BINDING [2]: 63%

CETYL-PEG3-ENK (SEQ ID NO: 1) (YGGFMK; also: cetyl-PEG3 conjugate, site not given here) [CETYL-TEG-ENK]
% SPECIFIC BINDING [2]: 100%

CCCCCCCCCCCCCCCCOCCOCCOC(=O)NCCCC[C@H](NC(=O)[C@H](CCSC)NC(=O)[C@H](Cc1ccccc1)NC(=O)CNC(=O)CNC(=O)[C@@H](N)Cc1ccc(O)cc1)C(=O)O [Cetyl-PEG-ENK, CETYL MET-ENKEPHALIN-LYS] (H-YGGFMK(X1)-OH)
Presence of conjugate peak in brain extract (HPLC) [3]: actually present in the brain exact

LINOLEIC MET-ENKEPHALIN-LYS [Linolenic-PEG-ENK]
Mean Analgesia as Compared with Morphine at 3 mg/Kg @ 5 min [1]: 77%
Mean Analgesia as Compared with Morphine at 3 mg/Kg @ 30 min [1]: 73%

DHA MET-ENKEPHALIN-LYS [DHA-PEG-ENK]
Mean Analgesia as Compared with Morphine at 3 mg/Kg @ 5 min [1]: 130%
Mean Analgesia as Compared with Morphine at 3 mg/Kg @ 30 min [1]: 67%
analgesic effect as compared to morphine as a baseline [1]: 130%

CETYL-PEG2-ENK (SEQ ID NO: 1) (YGGFMK; also: cetyl-PEG2 conjugate, site not given here) [CETYL-ENK]
% SPECIFIC BINDING [2]: 100%

Met enkephalin-lys (YGGFMK) [reference compound]
Presence of conjugate peak in brain extract (HPLC) [3]: neither the vehicle (FIG. 5C) nor the unconjugated enkephalin SEQ ID NO: 49 (FIG. 5D) showed a corresponding peak
Mean Analgesia as Compared with Morphine at 3 mg/Kg @ 5 min [1]: 0%
Mean Analgesia as Compared with Morphine at 3 mg/Kg @ 30 min [1]: 0%
analgesic effect as compared to morphine as a baseline [1]: 0%

CHOLESTEROL-PEG3-ENK (SEQ ID NO: 1) (YGGFMK; also: cholesterol-PEG3 conjugate, site not given here) [CHOL-ENK]
% SPECIFIC BINDING [2]: 95%
